Read-outs that look alike come from different tables or passages of the source.
Key:
CB1 receptor = target: T1, CB1 receptor (Rattus norvegicus, UniProt P20272); test: Radioligand binding assay ([3H]CP-55,940 displacement), rat forebrain membranes as source of CB1
T1 construct: using rat forebrain membranes as a source of CB1; from tissue; host or cells: rat forebrain (whole brain minus cerebral cortex) membranes
Experimental: The binding affinities of the novel compounds described in this invention for the central cannabinoid receptor was assessed using rat forebrain membranes as a source of CB1. Membranes were prepared as described by the method of Dodd et al., Brain Res. 226:107 (1981), the entire teachings of which are incorporated herein by reference. Rat whole brains minus the cerebral cortex were diced with a razor blade and homogenized in 0.32 M sucrose, pH 7.4. The resulting suspension was spun at 400×g at 4° C. The supernatant was decanted and layered over 1.2 M sucrose in TME buffer (25 mM Tris base, 5 mM MgCl2 1 mMEDTA, pH 7.4) and spun at 109,000×g. The interface containing plasma membrane protein was collected, pooled and layered over 0.8 M sucrose in TME, pH 7.4. The pellet was carefully resuspended in TME, pH 7.4 and the total protein content was assayed by the method of Markwell et al., Anal. Biochem. 87:206 (1978), the entire teachings of which are incorporated herein by reference. Protein was aliquotted, frozen under liquid nitrogen and stored at −80° C. until use.
(§1) Approximately 30 μg of tissue was incubated in silanized 96 well microtiter plate with TME containing 0.1% essentially fatty acid free bovine serum albumin (BSA), 0.8 nM CH^3]CP-55,940 and various concentrations of the test compound in a final volume of 200 μL. Assays were incubated at 30° C. for 1 hour. The samples were filtered using Packard Filtermate 196 and Whatman GF/C Filterplates and washed with wash buffer (TME) containing 0.5% BSA. Radioactivity was detected using MicroScint 20 scintillation cocktail added directly to the dried filterplates, and the filterplates were counted using a Packard Instruments Top-Count. Nonspecific binding was assessed using 100 nM CP-55,940. Data collected from three independent experiments performed with duplicate determinations were normalized between 100% and 0% specific binding for [H^3]CP-55,940, determined using buffer and 100 nM CP-55,940. The normalized data was analyzed using a 4 parameter nonlinear logistic equation to yield IC50 values. Data from at least two independent experiments performed in duplicate were used to calculate IC50 values which were convered to Ki values using the assumptions of Cheng and Prusoff, Biochem. Pharmacol., 22:3099 (1973), the entire teachings of which are incorporated herein by reference.

CB2 receptor = target: T2, CB2 receptor (Mus musculus, UniProt P47936); test: Radioligand binding assay ([3H]CP-55,940 displacement), mouse spleen as source of CB2; conditions: for selectivity for the CB2 receptor: CB2 over CB1, statement in words
T2 construct: Mouse spleen was used a source of CB2 receptors; from tissue; host or cells: mouse spleen
Experimental: as §1
Mouse spleen was used a source of CB2 receptors to assess binding affinity of analogs described in this invention. The CB2 binding assay was conducted in the same manner as for CB1. Silanized centrifuge tubes were used throughout to minimize receptor loss due to adsorption.

[1] = rat forebrain membranes, 0.8 nM [3H]CP-55,940, Ki from IC50 by Cheng and Prusoff, read-out: Ki in nM for the CB1 Receptor
[2] = Ki in nM for the CB1 Receptor, rat forebrain membranes, 0.8 nM [3H]CP-55,940, Ki from IC50 by Cheng and Prusoff
[3] = Ki for the CB2 receptor, refers to Example 2
[4] = Ki in nM for the CB2 Receptor, mouse spleen, [3H]CP-55,940, Ki from IC50 by Cheng and Prusoff
[5] = Ki for the CB1 receptor, refers to Example 2

T1 sequence (P20272 whole entry): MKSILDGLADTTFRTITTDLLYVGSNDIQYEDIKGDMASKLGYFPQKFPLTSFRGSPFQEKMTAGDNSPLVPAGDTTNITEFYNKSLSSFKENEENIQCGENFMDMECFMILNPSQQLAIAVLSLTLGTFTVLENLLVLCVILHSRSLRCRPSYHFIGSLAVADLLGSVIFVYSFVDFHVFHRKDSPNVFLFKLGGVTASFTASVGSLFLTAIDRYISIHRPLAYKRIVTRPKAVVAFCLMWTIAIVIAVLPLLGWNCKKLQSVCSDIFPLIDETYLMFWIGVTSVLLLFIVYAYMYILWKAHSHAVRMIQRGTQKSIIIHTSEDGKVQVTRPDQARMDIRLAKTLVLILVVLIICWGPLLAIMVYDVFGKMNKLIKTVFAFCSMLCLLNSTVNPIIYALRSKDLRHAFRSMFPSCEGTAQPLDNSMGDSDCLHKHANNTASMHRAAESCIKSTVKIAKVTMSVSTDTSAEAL
T2 sequence (P47936 whole entry): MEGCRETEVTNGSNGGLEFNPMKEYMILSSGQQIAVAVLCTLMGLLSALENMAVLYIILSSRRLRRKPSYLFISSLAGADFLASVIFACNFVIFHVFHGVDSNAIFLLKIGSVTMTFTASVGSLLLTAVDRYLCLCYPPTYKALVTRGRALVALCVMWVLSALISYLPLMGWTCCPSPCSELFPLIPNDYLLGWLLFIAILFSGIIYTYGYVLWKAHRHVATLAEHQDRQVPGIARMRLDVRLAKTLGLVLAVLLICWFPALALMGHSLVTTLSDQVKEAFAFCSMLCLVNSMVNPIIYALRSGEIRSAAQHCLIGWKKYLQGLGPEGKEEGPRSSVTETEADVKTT

Row | Compound | Ki (CB1 receptor; [1]) [nM] | Ki (CB1 receptor; [2]) [nM] | selectivity for the CB2 receptor (CB2 receptor) | Ki (CB2 receptor; [3]) [nM] | Ki (CB2 receptor; [4]) [nM] | Ki (CB1 receptor; [5]) [nM] | also measured
1 | CC1=CC[C@@H]2[C@@H](C1)c1c(O)cc(C34CC5CC(CC(C5)C3)C4)cc1OC2(C)C [AM411] | 6.9 | – | – | – | – | – | selectivity for the CB1 receptor (CB1 receptor; CB1 over CB2, statement in words): selective agonists; Ki (CB2 receptor; mouse spleen, [3H]CP-55,940, Ki from IC50 by Cheng and Prusoff, read-out: Ki in nM for the CB2 Receptor): 52 nM
2 | CC1=CC[C@@H]2[C@@H](C1)c1c(O)cc(C3CC4CCC3(C)C4(C)C)cc1OC2(C)C (stereo partly shown) [AM731] | – | 60.6 | selective agonists | < 10 | 6.1 | – | –
3 | CC1=CC[C@@H]2[C@@H](C1)c1c(O)cc(C3CC4CCC3(C)C4(C)C)cc1OC2(C)C (stereo partly shown) [AM732] | – | 20.1 | selective agonists | – | 2 | – | –
4 | CCCCCCC1(c2cc(O)c3c(c2)OC(C)(C)[C@@H]2CC=C(C)C[C@@H]32)SCCS1 [AMG3] | 0.32 | – | – | – | 1.7 | < 1 | –
5 | CCCCCCC1(c2cc(O)c3c(c2)OC(C)(C)[C@@H]2CC=C(C)C[C@@H]32)OCCO1 [AMG14] | – | 0.2 | – | – | – | < 1 | –
6 | CCCCCc1cc(O)c2c(c1)OC(C)(C)[C@@H]1CC=C(C)C[C@@H]21 [Δ^8-tetrahydrocannabinol, reference compound] | – | – | – | 14 | – | – | –

Source: patent US20050239874A1, “Novel analgesic and immunomodulatory cannabinoids” (University of Connecticut, priority 1998, published 2005)
